Results published in patent US10399972B2, “Tricyclic compounds as inhibitors of mutant IDH enzymes” (Merck Sharp & Dohme Corp., priority 2015, dated 2019).

What follows are molecules tested against R132H mutant IDH1 enzyme (Homo sapiens (Human), UniProt O75874, R132H) (assay: R132H IDH1 Enzymatic Assay). Details: 1.5 nM final, 30 min preincubation, 60 min reaction, Kinase-GLO luminescence.
Type: biochemical
Protocol: R132H IDH1 Enzymatic Assay
Each test compound (10 mM stock in DMSO) is diluted in DMSO to make a 10-point, 3-fold dilution series. 125 nL of each dilution or DMSO alone is dispensed to a 384-well Greiner Lumitrac 200 assay plate using an Echo® Liquid Handler. To each well of the plate is added 20 uL of enzyme in assay buffer or assay buffer alone. Assay buffer consists of 50 mM sodium phosphate, pH 7.0, 50 mM magnesium chloride, 50 mM sodium chloride, and 0.01% (w/v) bovine serum albumin. When present, the R132H mutant IDH1 enzyme is at a working concentration of 1.875 nM (final concentration in assay of 1.5 nM). The assay plate is allowed to incubate for 30 minutes at room temperature and 5 uL of 5× substrate mixture (2.5 uM nicotinamide adenine dinucleotide phosphate, 100 uM adenosine diphosphate, 7.5 mM glyceraldehyde-3-phosphate, 7.5 ug/mL of spinach glyceraldehyde-3-phosphate dehydrogenase, 25 nM phosphoglycerate kinase, and 5 mM alpha-ketoglutarate in assay buffer) is added to all wells. The reaction plate is incubated for 60 minutes followed by addition of 25 uL of Promega Kinase-GLO reagent to all wells and 10-minute incubation.
Luminescence is measured using a PerkinElmer Envision plate reader. The percent activity of each dilution is determined as the ratio of background corrected signal to the background corrected signal of wells receiving only DMSO. IC50 values are determined by fitting percent activity data to a four-parameter logistic dose response equation. The IC50 values of the exemplified compounds are included in Table 8.

Chain of R132H mutant IDH1 enzyme (O75874 whole entry R132H): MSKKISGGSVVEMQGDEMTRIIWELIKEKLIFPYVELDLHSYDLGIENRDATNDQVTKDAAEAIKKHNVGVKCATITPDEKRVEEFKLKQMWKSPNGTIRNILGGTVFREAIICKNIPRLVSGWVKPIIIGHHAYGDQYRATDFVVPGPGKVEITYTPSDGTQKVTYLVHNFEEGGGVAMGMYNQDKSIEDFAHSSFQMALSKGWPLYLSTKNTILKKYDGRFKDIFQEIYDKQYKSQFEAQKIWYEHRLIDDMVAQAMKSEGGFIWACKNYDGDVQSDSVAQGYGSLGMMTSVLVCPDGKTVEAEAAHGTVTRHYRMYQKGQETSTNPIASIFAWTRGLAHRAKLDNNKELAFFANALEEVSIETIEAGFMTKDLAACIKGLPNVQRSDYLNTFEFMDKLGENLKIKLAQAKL

IC50 [nM] | Structure (SMILES)
3.6 | O=C(C1CCN(CC(F)(F)F)CC1)N1Cc2cc(F)cnc2Nc2cc(F)c(-c3ccn[nH]3)cc21 [Example 51, (3,9-difluoro-8-(1H-pyrazol-5-yl)-5,11-dihydro-6H-benzo[b]pyrido[2,3-e][1,4]diazepin-6-yl)(1-(2,2,2-trifluoroethyl)piperidin-4-yl)methanone]
5.7 | Cn1cc(-c2cc3c(cc2F)Nc2ncccc2CN3C(=O)C2CCN(CC(F)(F)F)CC2)cn1 [Example 52, (9-Fluoro-8-(1-methyl-1H-pyrazol-4-yl)-5,11-dihydro-6H-benzo[b]pyrido[2,3-e][1,4]diazepin-6-yl)(1-(2,2,2-trifluoroethyl)piperidin-4-yl)methanone]
7.2 | Cn1nccc1-c1cc2c(cc1F)Nc1ncccc1CN2C(=O)C1CCN(CC(F)(F)F)CC1 [Example 53, (9-fluoro-8-(1-methyl-1H-pyrazol-5-yl)-5,11-dihydro-6H-benzo[b]pyrido[2,3-e][1,4]diazepin-6-yl)(1-(2,2,2-trifluoroethyl)piperidin-4-yl)methanone]
5.6 | O=C(C1CCN(CC(F)(F)F)CC1)N1Cc2cc(F)cnc2Nc2ccc([C@H]3COCCO3)cc21 [Example 54, (S)-(8-(1,4-Dioxan-2-yl)-3-fluoro-5,11-dihydro-6H-benzo[b]pyrido[2,3-e][1,4]diazepin-6-yl)(1-(2,2,2-trifluoroethyl)piperidin-4-yl)methanone]
6.5 | O=C(C1CCN(CC(F)(F)F)CC1)N1Cc2cc(F)cnc2Nc2ccc([C@@H]3COCCO3)cc21 [Example 55, (R)-(8-(1,4-dioxan-2-yl)-3-fluoro-5,11-dihydro-6H-benzo[b]pyrido[2,3-e][1,4]diazepin-6-yl)(1-(2,2,2-trifluoroethyl)piperidin-4-yl)methanone]
18.1 | O=C(C1CCN(CC(F)(F)F)CC1)N1Cc2cccnc2Nc2cc(F)c([C@@H]3COCCO3)cc21 [Example 56, (R)-(8-(1,4-Dioxan-2-yl)-9-fluoro-5,11-dihydro-6H-benzo[b]pyrido[2,3-e][1,4]diazepin-6-yl)(1-(2,2,2-trifluoroethyl)piperidin-4-yl)methanone]
12.2 | O=C(C1CCN(CC(F)(F)F)CC1)N1Cc2cccnc2Nc2cc(F)c([C@H]3COCCO3)cc21 [Example 57, (S)-(8-(1,4-dioxan-2-yl)-9-fluoro-5,11-dihydro-6H-benzo[b]pyrido[2,3-e][1,4]diazepin-6-yl)(1-(2,2,2-trifluoroethyl)piperidin-4-yl)methanone]
18.3 | Cc1cc2c(cc1N1C[C@@H]3CC[C@H]1CO3)N(C(=O)[C@H]1CC[C@H](OC(C)C)CC1)Cc1cccnc1N2 [Example 58, (trans-4-isopropoxycyclohexyl){9-methyl-8-[(1S,4S)-2-oxa-5-azabicyclo[2.2.2]oct-5-yl]-5,11-dihydro-6H-pyrido[2,3-b][1,5]benzodiazepin-6-yl}methanone]
58.7 | Cc1c(N2C[C@@H]3CC[C@H]2CO3)ccc2c1N(C(=O)[C@H]1CC[C@H](OC(C)C)CC1)Cc1cccnc1N2 [Example 59, (trans-4-isopropoxycyclohexyl){7-methyl-8-[(1S,4S)-2-oxa-5-azabicyclo[2.2.2]oct-5-yl]-5,11-dihydro-6H-pyrido[2,3-b][1,5]benzodiazepin-6-yl}methanone]
25.9 | Cc1cc2c(cc1N1C[C@H]3CC[C@@H]1CO3)N(C(=O)[C@H]1CC[C@H](OC(C)C)CC1)Cc1cccnc1N2 [Example 60, (trans-4-isopropoxycyclohexyl){9-methyl-8-[(1R,4R)-2-oxa-5-azabicyclo[2.2.2]oct-5-yl]-5,11-dihydro-6H-pyrido[2,3-b][1,5]benzodiazepin-6-yl}methanone]
54.1 | Cc1c(N2C[C@H]3CC[C@@H]2CO3)ccc2c1N(C(=O)[C@H]1CC[C@H](OC(C)C)CC1)Cc1cccnc1N2 [Example 61, (trans-4-isopropoxycyclohexyl){7-methyl-8-[(1R,4R)-2-oxa-5-azabicyclo[2.2.2]oct-5-yl]-5,11-dihydro-6H-pyrido[2,3-b][1,5]benzodiazepin-6-yl}methanone]
35.2 | CC(C)O[C@H]1CC[C@H](C(=O)N2Cc3cccnc3Nc3cc(F)c(N4CC5CCC4CO5)cc32)CC1 (stereo partly drawn) [Example 62, [9-fluoro-8-(2-oxa-5-azabicyclo[2.2.2]oct-5-yl)-5,11-dihydro-6H-pyrido[2,3-b][1,5]benzodiazepin-6-yl](trans-4-isopropoxycyclohexyl)methanone]
57 | CC(C)O[C@H]1CC[C@H](C(=O)N2Cc3cccnc3Nc3ccc(N4CC5CCC4CO5)c(F)c32)CC1 (stereo partly drawn) [Example 63, [7-fluoro-8-(2-oxa-5-azabicyclo[2.2.2]oct-5-yl)-5,11-dihydro-6H-pyrido[2,3-b][1,5]benzodiazepin-6-yl](trans-4-isopropoxycyclohexyl)methanone]
46.3 | CC(C)O[C@H]1CC[C@H](C(=O)N2Cc3cccnc3Nc3cc(F)c(N4C[C@@H]5C[C@H]4CO5)cc32)OC1 [Example 64, (8-((1S,4S)-2-Oxa-5-azabicyclo[2.2.1]heptan-5-yl)-9-fluoro-5H-benzo[b]pyrido[2,3-e][1,4]diazepin-6(11H)-yl)((2R,5S)-5-isopropoxytetrahydro-2H-pyran-2-yl)methanone]
106 | CC(C)OC1CCC(C(=O)N2c3cc(Cl)ccc3Nc3ncccc3C2C)CC1 (stereo not drawn) [Example 65, (8-Chloro-5-methyl-5,11-dihydro-6H-benzo[b]pyrido[2,3-e][1,4]diazepin-6-yl)(trans-4-isopropoxycyclohexyl)methanone]
71.9 | CC(C)O[C@H]1CC[C@H](C(=O)N2c3cc(N4CCOCC4)ccc3Nc3ncccc3C2C)CC1 (stereo partly drawn) [Example 66, (Trans-4-isopropoxycyclohexyl)(5-methyl-8-morpholino-5,11-dihydro-6H-benzo[b]pyrido[2,3-e][1,4]diazepin-6-yl)methanone]
215 | COc1ccc2c(c1)N(C(=O)C1CCN(CC(F)(F)F)CC1)C(C)c1cccnc1N2 (stereo not drawn) [Example 67, (8-Methoxy-5-methyl-5,11-dihydro-6H-benzo[b]pyrido[2,3-e][1,4]diazepin-6-yl)(1-(2,2,2-trifluoroethyl)piperidin-4-yl)methanone]
112 | COc1ccc2c(c1)N(C(=O)[C@H]1CC[C@H](OC(C)C)CC1)C(C)c1cccnc1N2 (stereo partly drawn) [Example 68, (Trans-4-isopropoxycyclohexyl)(8-methoxy-5-methyl-5,11-dihydro-6H-benzo[b]pyrido[2,3-e][1,4]diazepin-6-yl)methanone]
103 | Cc1cnc2c(c1)CN(C(=O)[C@H]1CC[C@H](OC(C)C)CC1)c1cc(N3C[C@@H]4CC[C@H]3CO4)ccc1N2 [Example 69, (8-((1S,4S)-2-Oxa-5-azabicyclo[2.2.2]octan-5-yl)-3-methyl-5,11-dihydro-6H-benzo[b]pyrido[2,3-e][1,4]diazepin-6-yl)(trans-4-isopropoxycyclohexyl)methanone]
5750 | CC(C)O[C@H]1CC[C@H](C(=O)N2Cc3cc(S(C)(=O)=O)cnc3Nc3ccc(N4C[C@@H]5CC[C@H]4CO5)cc32)CC1 [Example 70, (8-((1S,4S)-2-oxa-5-azabicyclo[2.2.2]octan-5-yl)-3-(methylsulfonyl)-5,11-dihydro-6H-benzo[b]pyrido[2,3-e][1,4]diazepin-6-yl)(trans-4-isopropoxycyclohexyl)methanone]
30 | CC(C)O[C@H]1CC[C@H](C(=O)N2Cc3cc(Cl)cnc3Nc3ccc(N4C[C@@H]5CC[C@H]4CO5)cc32)CC1 [Example 71, (8-((1S,4S)-2-Oxa-5-azabicyclo[2.2.2]octan-5-yl)-3-chloro-5,11-dihydro-6H-benzo[b]pyrido[2,3-e][1,4]diazepin-6-yl)(trans-4-isopropoxycyclohexyl)methanone]
160 | O=C(C1CCN(CC(F)(F)F)CC1)N1Cc2cc(F)cnc2Nc2cc(F)ccc21 [Example 72, (3,9-Difluoro-5,11-dihydro-6H-benzo[b]pyrido[2,3-e][1,4]diazepin-6-yl)(1-(2,2,2-trifluoroethyl)piperidin-4-yl)methanone]
10 | O=C(C1CCN(CC(F)(F)F)CC1)N1Cc2cc(F)cnc2Nc2cc(F)c(N3CC4CCC3CO4)cc21 (stereo not drawn) [Example 73, (8-(2-oxa-5-azabicyclo[2.2.2]octan-5-yl)-3,9-difluoro-5H-benzo[b]pyrido[2,3-e][1,4]diazepin-6(11H)-yl)(1-(2,2,2-trifluoroethyl)piperidin-4-yl)methanone]
174 | O=C(C1CCN(CC(F)(F)F)CC1)N1Cc2cccnc2Nc2cc(F)ccc21 [Example 74, (9-Fluoro-5,11-dihydro-6H-benzo[b]pyrido[2,3-e][1,4]diazepin-6-yl)(1-(2,2,2-trifluoroethyl)piperidin-4-yl)methanone]
